# Reference: ChEMBL document CHEMBL1150349, “Design and synthesis of hydroxy-alkynoic acids and their methyl esters as novel activators of BK channels” (Bioorg Med Chem Lett, 2008)
# The source made the active and inactive calls. No cut-off for these calls is given here.
# Molecular target: Calcium-activated potassium channel subunit alpha-1 (Rattus norvegicus) (UniProt Q62976)
# Experiment: Activation of BK channel in rat cerebral myocytes by voltage patch clamp method
# Type: cell-based
# Chain of Calcium-activated potassium channel subunit alpha-1 (Rattus norvegicus) (Q62976 whole entry): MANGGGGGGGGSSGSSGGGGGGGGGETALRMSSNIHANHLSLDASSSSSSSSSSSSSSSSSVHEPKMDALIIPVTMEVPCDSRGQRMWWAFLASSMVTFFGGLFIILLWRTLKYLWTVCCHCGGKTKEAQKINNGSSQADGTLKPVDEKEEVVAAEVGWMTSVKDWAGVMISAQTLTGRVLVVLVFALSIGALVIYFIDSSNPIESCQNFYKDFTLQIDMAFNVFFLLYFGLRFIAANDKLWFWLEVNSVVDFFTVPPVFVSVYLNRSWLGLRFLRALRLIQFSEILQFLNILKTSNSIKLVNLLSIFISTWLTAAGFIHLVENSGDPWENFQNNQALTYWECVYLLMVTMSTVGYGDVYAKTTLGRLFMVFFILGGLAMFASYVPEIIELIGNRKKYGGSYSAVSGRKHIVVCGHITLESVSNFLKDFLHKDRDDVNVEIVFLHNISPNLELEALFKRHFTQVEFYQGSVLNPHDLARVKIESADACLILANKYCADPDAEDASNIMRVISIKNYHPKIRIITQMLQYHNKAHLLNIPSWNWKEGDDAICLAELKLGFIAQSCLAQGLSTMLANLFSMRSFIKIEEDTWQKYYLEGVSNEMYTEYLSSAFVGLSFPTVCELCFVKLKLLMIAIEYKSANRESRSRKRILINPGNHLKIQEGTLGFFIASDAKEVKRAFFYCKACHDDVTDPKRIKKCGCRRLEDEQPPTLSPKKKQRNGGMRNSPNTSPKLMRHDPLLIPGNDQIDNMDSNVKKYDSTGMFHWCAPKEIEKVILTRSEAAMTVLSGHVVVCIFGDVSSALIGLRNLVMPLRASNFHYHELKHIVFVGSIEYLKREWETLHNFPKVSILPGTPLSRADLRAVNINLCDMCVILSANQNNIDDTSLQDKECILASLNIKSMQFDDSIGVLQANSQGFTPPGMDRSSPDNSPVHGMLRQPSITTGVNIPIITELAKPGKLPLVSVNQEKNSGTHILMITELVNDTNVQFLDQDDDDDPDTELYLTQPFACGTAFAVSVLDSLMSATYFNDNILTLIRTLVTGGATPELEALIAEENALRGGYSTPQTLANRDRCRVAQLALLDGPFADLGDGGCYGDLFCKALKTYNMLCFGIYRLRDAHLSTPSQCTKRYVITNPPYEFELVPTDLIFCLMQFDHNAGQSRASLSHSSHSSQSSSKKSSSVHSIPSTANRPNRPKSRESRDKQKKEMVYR
row,SMILES,Activity
1,COC(=O)CCCCCCCC#CCCCCO,inactive
2,COC(=O)CCCCC#CCCCO,Active
3,COC(=O)CCCCCCCCCC#CCCCCO,inactive
4,COC(=O)CCCC#CCCO,inactive

# Next, values leading:
row,Activity,SMILES
1,Active,O=C(O)CCCCCC#CCCCCO
2,Active,O=C(O)CCCCCC#CCCCO
